The values that follow come from patent US10335503B2, “Compound that specifically binds to AMPA receptor” (Public University Corporation Yokohama City University, priority 2015, dated 2019).

The structures appear in SMILES notation.

Series [1] deals with AMPA receptor. Nature of the series: Electrophysiological experiment: AMPA current by whole-cell recording in acute hippocampus section. In kind it is cell-based, rat. The note with it: 150 μM in ACSF for 15 minutes, CA1 pyramidal cell, ground state converted as 1. The procedure:
(§1) In the LC-MS/MS experiment, all of the synthesized compounds were dissolved in 100% DMSO so as to have a concentration of 2.5 mM, diluted with physiological saline water immediately before administration (PEPA (1.2 pmol/g), M-1 (12 pmol/g), K-2 (12 pmol/g), M-3 (60 pmol/g), and M-2 (240 pmol/g)), and administered by the parenteral route. In the electrophysiological experiment, PEPA and K-2 were dissolved in 100% DMSO so as to have a concentration of 150 mM, diluted with ACSF as a reflux liquid immediately before the experiment so as to have a concentration of 150 μM and then used. […]
A 7- to 8-week-old male SD rat was used. […] The section was left to stand still in ACSF at room temperature for 60 minutes, and then the AMPA current was measured by a whole-cell recording method. 100 μM of picrotoxin and 100 μM of DL-APV were administered under the condition that the ACSF was refluxed at a rate of 3 ml/min, and then only the AMPA current was isolated and measured.
The recording electrode was placed on a pyramidal cell in CA1, and the exciting electrode was placed on the Schaffer fiber separated away from the recording cell by 100 to 200 μm. […] The AMPA current in the ground state was recorded for 5 minutes, reflux was thereafter performed using ACSF added with PEPA or K-2 for 15 minutes, and then the AMPA current was recorded in the reflux liquid not containing PEPA or K-2 for 30 minutes. […]

Series [2] is described as follows: LC-MS/MS experiment: accumulation of compound in hippocampal tissue. The class given is in vivo. The note with it: rat, 15 minutes from administration, compared among five compounds (FIG. 1). The procedure:
as §1
The LC-MS/MS experiment and the biochemical experiment were performed after a rat was allowed to get to sleep by inhalation of isoflurane while anesthesia was maintained using a dedicate carburetor at a concentration of 1.5%. […] In the LC-MS/MS experiment, the hippocampus region was collected in a thickness of approximately 2 mm from the extracted whole brain using Brain matrix (ASI instruments, U.S.), the tissue weight thereof was measured, and then the hippocampus region was put into a 1.5-ml conical tube. […]
As for the preliminary reviewing of measurement conditions, an optimal dilution solvent and an optimal dilution magnification for each compound were determined using the hippocampal tissue (Table 4). […]

Series [3] concerns AMPA receptors (GluA1 to 3). Nature of the series: In vivo PET imaging of rat with shRNA against GluA1 to 3 in left striatum, scramble RNA in right striatum. The note with it: seven rats, shRNA side vs scramble side of striatum. The procedure:
The PET imaging was performed using micro PET (Focus 220; Siemens Medical Solution). PET imaging experiment using a rat: After the rat was allowed to get to sleep by isoflurane (DS Pharma Animal Health Co., Ltd., Japan), anesthesia was maintained at an isoflurane concentration of 1.5% (air 2 L/min), and then the intravenous line was secured from the tail vein by a 24G Surflo indwelling needle (TERUMO CORPORATION, Japan). The rat was fixed to the PET imaging base, and then radiation imaging for checking the position was performed before imaging. Thereafter, 50% DMSO or K-2 dissolved in 50% DMSO was administered by the parenteral route, and after 3 minutes from administration, the radio-labeled K-2 (about 4 MBq) was administered. […]
A summation image was constructed and offset was removed therefrom with a 0.5-mm Hanning filter so as to reconstruct a dynamic image. The reconstructed image was analyzed using PMOD image analysis software (PMOD technologies) by combining VOIs including a plurality of regions of the striatum, the hippocampus, the cerebellum, the brain stem, and the like with a region formed on the template MRI image. The calculation value used in quantitative determination was % SUV (% of standardized uptake value) and obtained by the following formula; % SUV=amount of radiation of each tissue surrounded by VOI (MBq)/administered amount of radiation (MBq)×weight (g) […]

The test system of series [4] is AMPA receptor. Nature of the series: In vivo PET imaging using rat, with blocking by non-radio-labeled K-2. The procedure:
as §1
The PET imaging was performed using micro PET (Focus 220; Siemens Medical Solution). PET imaging experiment using a rat: After the rat was allowed to get to sleep by isoflurane (DS Pharma Animal Health Co., Ltd., Japan), anesthesia was maintained at an isoflurane concentration of 1.5% (air 2 L/min), and then the intravenous line was secured from the tail vein by a 24G Surflo indwelling needle (TERUMO CORPORATION, Japan). The rat was fixed to the PET imaging base, and then radiation imaging for checking the position was performed before imaging. Thereafter, 50% DMSO or K-2 dissolved in 50% DMSO was administered by the parenteral route, and after 3 minutes from administration, the radio-labeled K-2 (about 4 MBq) was administered. During the PET imaging, the body temperature was maintained to 37±0.5° C. using a feedback type heating plate (BWT-100A; Bio Research Center, Japan). After the imaging, the intravenous line was removed, the administration of isoflurane was stopped, and then the rat was removed from the PET imaging base and returned to the home cage. The rat was raised in the room in which imaging was performed during 1 week after the imaging, and then the rat was returned to the normal rat group rearing room.
A summation image was constructed and offset was removed therefrom with a 0.5-mm Hanning filter so as to reconstruct a dynamic image. The reconstructed image was analyzed using PMOD image analysis software (PMOD technologies) by combining VOIs including a plurality of regions of the striatum, the hippocampus, the cerebellum, the brain stem, and the like with a region formed on the template MRI image. The calculation value used in quantitative determination was % SUV (% of standardized uptake value) and obtained by the following formula; % SUV=amount of radiation of each tissue surrounded by VOI (MBq)/administered amount of radiation (MBq)×weight (g)

On to `NC(=O)COc1c(F)cc(SCCNS(=O)(=O)c2ccccc2)cc1F` [PEPA, 2-[2,6-Difluoro-4-({2-[(phenylsulfonyl)amino]ethyl}thio)phenoxy]acetamide, reference compound], for which, in the series with AMPA receptor [1], the “ratio of AMPA current to reference value” worked out at 2.4±0.13. The “accumulation of compound in hippocampal tissue” value in series [2] was “highest”.

Consider `[11CH3]N(CCSc1cc(F)c(OCC(N)=O)c(F)c1)S(=O)(=O)c1ccccc1` [Radio-labeled K-2, {4-[2-(Benzenesulfonyl-[^11C]Methyl-Amino)-Ethylsulfanil]-2,6-Difluoro-Phenoxy}-Acetamide], for which, in series [3], the “decrease in the PET image value at the shRNA side” value was “about 30%”. The “BPnd (estimated binding potential)” value in the series with AMPA receptor [4] (Logan Plot method, blocking using the non-radio-labeled K-2, striatum and hippocampus) is on record as “significantly lowered”. Also, the “uptake of the brain stem” value with AMPA receptor [4] (blocking by non-radio-labeled K-2) was “not changed by blocking”. The “degree of loss of specific binding after blocking” value in the series on AMPA receptor [4] (prior administration of 0.05 mg/kg of non-radio-labeled K-2, compared to 0.5 mg/kg) is recorded as “small”. In the series with AMPA receptor [4] (prior administration of 0.5 mg/kg of non-radio-labeled K-2, 3 minutes before), the “specific accumulation of radio-labeled K-2 after blocking” value is given as “lost”. In the series on AMPA receptor [4] (rat, PET, about 4 MBq), the brain uptake result is “extremely high brain uptake”.
